Assays:
[1] = test system: p38 MAPK; details: neurons preincubated in vitro; cited from earlier work
[2] = test system: osteoarthritis model; details: rats, 50 mg/kg; cited from earlier work
[3] = cited from earlier work
[4] = test system: Alzheimer's disease (AD) transgenic Tg2576 mouse model; experiment: Amyloid plaque load by Aβ immunohistochemistry after 2-week oral treatment of Tg2576 mice; assay type: in vivo; details: Tg2576 mice aged 26 months, 3 mg/kg BID oral, 2 weeks
[5] = high doses; cited from earlier work
[6] = dogs; cited from earlier work
[7] = animals; cited from earlier work
[8] = cited from earlier work; remark: listed apart in the source
[9] = test system: IL-1β; experiment: IL-1β ELISA of brain tissue of treated Tg2576 mice; assay type: in vivo, mouse; details: 3 mg/kg BID, 2 weeks, soluble dorsal cortex fraction
[10] = test system: hyperalgesia model; details: cited from earlier work
[11] = test system: rodent arthritis models; details: cited from earlier work
[12] = test system: arthritis model; details: 10 mg/kg dose, reference compound; cited from earlier work

SMILES	blocking of the enhancement of MAPT phosphorylation [1]	inhibition of knee degeneration compared to control animals [2]	adverse events in rheumatoid arthritis patients ([3]; 250 mg b.i.d., humans)	adverse neurological effects in humans [3]	therapeutically effective unit dose for the treatment of rheumatoid arthritis ([3]; humans) [mg]	decrease of amyloid plaque area in the cortex as compared with vehicle ([4]; cortex) [%]	mean amyloid plaque area, cortex ([4]; cortex (vehicle control 27.7%)) [%]	decrease of amyloid plaque area in the hippocampus as compared with vehicle ([4]; hippocampus) [%]	mean amyloid plaque area, hippocampus ([4]; hippocampus (vehicle control 13.6%)) [%]	adverse neurological effects in animals [5]	brain levels relative to systemic levels [6]	blood brain barrier penetration [7]	plasma protein binding [8]	IL-1β levels compared to wild-type or control animals [9]	effect on hyperalgesia at the lowest dose ([10]; 3 mg/kg dose)	inhibition of hyperalgesic response ([10]; rats, doses of 30 mg/kg, 10 mg/kg and 3 mg/kg)	anti-inflammatory activity [11]	inhibition of paw swelling [12]
C[S+]([O-])c1ccc(-c2nc(-c3ccc(F)cc3)c(-c3ccncc3)[nH]2)cc1 (stereo not drawn) [SB203580]	could be blocked	–	–	–	–	–	–	–	–	–	–	–	–	–	–	–	–	–
O=c1ncn2nc(Sc3ccc(F)cc3F)ccc2c1-c1c(Cl)cccc1Cl [VX-745]	–	statistically significant inhibition of knee degeneration	adverse events, including gastrointestinal effects such as diarrhea and abdominal pain, and elevations in liver transaminases	not observed in humans	250	32.5	18.7	61.8	5.2	experienced adverse neurological effects	twice that of systemic levels	known to penetrate the blood brain barrier (BBB)	highly protein-bound	no increases in IL-1β levels	minimal effect	significant inhibition of hyperalgesic response	significant anti-inflammatory activity	not as effective at inhibiting paw swelling as other compounds assayed

Source: patent US9427438B2, “Compositions and methods for treating Alzheimer's disease” (EIP Pharma, LLC, priority 2011, dated 2016)
